{"source": "patent US4071559A", "about": "“Pharmaceutically active 2-omega-aminoalkoxydiphenyls” (Mitsubishi Chemical Industries Limited, priority 1975, dated 1978)", "key": {"[1]": {"test_system": "reserpine induced hypothermia", "experiment": "Antagonism of reserpine induced hypothermia in mice (antireserpine / antidepressant activity)", "assay_type": "in vivo", "details": "i.p.; for Antireserpine activity, Relative Potency: reserpine 5 mg/kg i.p., Amitriptyline = 1", "method": "(§1) The compounds were administered intraperitoneally and the activities of the compounds were compared with those of Amitriptyline."}, "mice": {"test_system": "mice", "details": "i.p., compared with Amitriptyline"}, "tremorine induced tremor": {"test_system": "tremorine induced tremor", "experiment": "Tremorine induced tremor in mice (central anticholinergic effect)", "assay_type": "in vivo", "details": "for ED50: Mus musculus, ip, tremorine induced tremor, read-out: Antitremorine Effect ED50", "method": "as §1"}, "[2]": {"test_system": "spontaneous motor activity", "experiment": "Spontaneous motor activity by ANIMEX apparatus (CNS depressant activity)", "assay_type": "in vivo", "details": "Mus musculus, ip, mice, i.p., read-out: Spontaneous Motor Activity Depression ED50"}, "neurological deficit": {"test_system": "neurological deficit", "experiment": "Traction test (neurological deficit; muscle relaxant action; CNS depressant activity)", "assay_type": "in vivo", "details": "mice; for ED50: Mus musculus, ip, traction test"}, "[3]": {"test_system": "electroshock induced tonic extensor", "experiment": "Antagonism of electroshock induced tonic extensor (anticonvulsant activity)", "assay_type": "in vivo", "details": "Mus musculus, ip; mice; dose which prevents 50% of response"}, "in vivo": {"experiment": "in vivo", "details": "mouse, ip"}}, "note": "Where a name gives a salt, the structure may show the parent alone.", "data": [{"smiles": "CNCCCCOc1ccccc1-c1ccccc1", "note": "[2-(4-methylaminobutoxy)diphenyl hydrochloride]", "values": [{"measurement": "antireserpine activity (in words)", "setting": "[1]; compared with Amitriptyline", "result": "comparable to that of Amitriptyline"}, {"measurement": "Antireserpine activity, Relative Potency", "setting": "[1]", "result": 0.99}, {"measurement": "toxicity (in words)", "setting": "mice", "result": "low toxicity"}, {"measurement": "ED50", "setting": "tremorine induced tremor", "result": 20, "unit": "mg/kg"}, {"measurement": "anticholinergic action (in words)", "setting": "tremorine induced tremor; i.p., compared with Amitriptyline", "result": "weak"}, {"measurement": "ED50", "setting": "[2]", "result": 30, "unit": "mg/kg"}, {"measurement": "ED50", "setting": "neurological deficit", "result": 40, "unit": "mg/kg"}, {"measurement": "CNS depressant action (in words)", "setting": "neurological deficit; i.p., traction test and spontaneous motor activity", "result": "weak"}, {"measurement": "ED50", "setting": "[3]", "result": 14, "unit": "mg/kg"}, {"measurement": "LD50", "setting": "in vivo", "result": 78, "unit": "mg/kg"}]}, {"smiles": "CN(C)CCCCOc1ccccc1-c1ccccc1", "note": "[2-(4-dimethylaminobutoxy)diphenyl hydrochloride]", "values": [{"measurement": "Antireserpine activity, Relative Potency", "setting": "[1]", "result": 0.45}, {"measurement": "LD50", "setting": "in vivo", "result": 100, "unit": "mg/kg"}]}, {"smiles": "NCCCCOc1ccccc1-c1ccccc1", "note": "[2-(4-aminobutoxy)diphenyl hydrochloride]", "values": [{"measurement": "Antireserpine activity, Relative Potency", "setting": "[1]", "result": 0.59}, {"measurement": "ED50", "setting": "tremorine induced tremor", "result": 60, "unit": "mg/kg"}, {"measurement": "ED50", "setting": "[2]", "result": 40, "unit": "mg/kg"}, {"measurement": "ED50", "setting": "neurological deficit", "result": 50, "unit": "mg/kg"}, {"measurement": "ED50", "setting": "[3]", "result": 14, "unit": "mg/kg"}, {"measurement": "LD50", "setting": "in vivo", "result": 137, "unit": "mg/kg"}]}]}
